The values that follow are results of earlier work, collected in patent publication US20240050950A1, “GRADIENT-BASED MICROFLUIDIC CIRCUIT, DEVICE, AND METHOD FOR PERFORMING AN ASSAY” (priority 2020, published 2024).

The conditions of the series: cited from earlier work.
[1] abbreviates: Table 1, antimicrobial agents/drugs.
The mark [2] stands for this setting: Table 3, antifungal drugs and other molecules.

Where a name gives a salt, the structure may show the parent alone. Read-outs that look alike come from different tables or passages of the source.

On to `Nc1nc(=O)c2c([nH]1)NCC(CNc1ccc(C(=O)N[C@@H](CCC(=O)[O-])C(=O)[O-])cc1)N2C=O.[Ca+2]` (some centres unmarked) [Fusilev (Leucovorin Calcium), Leucovorin Calcium], for which the Molar volume (Table 2, anticancer drugs) was 280.7 ± 7.0 cm^3.
As to `CN[C@@H]1[C@@H](O)[C@@H](O[C@@H]2[C@@H](O)[C@H](O[C@H]3O[C@H]([C@@H](C)O)[C@@H](O)[C@H](O)[C@H]3N)[C@@H](N)C[C@H]2N)OC[C@]1(C)O` [G 418], the Molar volume under setting [1] is given as 336.3 ± 5.0 cm^3.
`O=C[C@H](O)[C@@H](O)[C@@H](O)[C@H](O)CO` [Galactose]: the Molar volume under setting [2] was 104.0 cm^3.
`Nc1nc(O)c2ncn(COC(CO)CO)c2n1` [Ganciclovir]: under setting [1], the Molar volume is listed as 140.5 ± 7.0 cm^3.
For the compound `COc1c(N2CCNC(C)C2)c(F)cc2c(=O)c(C(=O)O)cn(C3CC3)c12` (centres unmarked) [Gatifloxacin], the Molar volume under setting [1] is recorded as 270.7 ± 3.0 cm^3.
Turning to `COc1cc2ncnc(Nc3ccc(F)c(Cl)c3)c2cc1OCCCN1CCOCC1` [Gefitinib], under “Table 2, anticancer drugs”, the Molar volume is recorded as 337.7 ± 3.0 cm^3.
Consider `Nc1ccn([C@@H]2O[C@H](CO)[C@@H](O)C2(F)F)c(=O)n1` [Gemcitabine Hydrochloride], for which the Molar volume (Table 2, anticancer drugs) was 142.3 ± 7.0 cm^3.
Take `CN(C)c1ccc(C(=C2C=CC(=[N+](C)C)C=C2)c2ccc(N(C)C)cc2)cc1` [Gentian Violet]: under setting [2], the Molar volume was 340.9 ± 5.0 cm^3.
Turning to `CN(C)C/C=C/C(=O)Nc1cc2c(Nc3ccc(F)c(Cl)c3)ncnc2cc1O[C@H]1CCOC1` [Gilotrif (Afatinib Dimaleate), Afatinib Dimaleate], for the setting “Table 2, anticancer drugs”, the Molar volume is on record as 351.9 ± 3.0 cm^3.
Turning to `CN1C(=O)[C@]23CC4=CC=C[C@H](O)[C@H]4N2C(=O)[C@@]1(CO)SS3` [Gliotoxin], the Molar volume under setting [1] was 186.5 ± 5.0 cm^3.
As for `CC(C)C[C@H](NC(=O)[C@@H](COC(C)(C)C)NC(=O)[C@H](Cc1ccc(O)cc1)NC(=O)[C@H](CO)NC(=O)[C@H](Cc1c[nH]c2ccccc12)NC(=O)[C@H](Cc1cnc[nH]1)NC(=O)[C@@H]1CCC(=O)N1)C(=O)N[C@@H](CCCNC(=N)N)C(=O)N1CCC[C@H]1C(=O)NNC(N)=O` [Goserelin Acetate (Zoladex), Goserelin Acetate], where the note is “Table 2, anticancer drugs”, the Molar volume is given as 844.7 ± 7.0 cm^3.
On to `CN1C2CCCC1CC(NC(=O)c1nn(C)c3ccccc13)C2` (centres unmarked) [Granisetron], for which, where the note is “Table 2, anticancer drugs”, the Molar volume is listed as 234.8 ± 7.0 cm^3.
Turning to `COC1=CC(=O)C[C@@H](C)[C@]12Oc1c(Cl)c(OC)cc(OC)c1C2=O` [Griseofulvin], under setting [1], the Molar volume is 255.1 ± 5.0 cm^3.
Consider `CC(C)NCC(O)COc1cccc2ccccc12` (centres unmarked) [Hemangeol (Propranolol Hydrochloride), Propranolol Hydrochloride], for which the Molar volume (Table 2, anticancer drugs) is recorded as 237.1 ± 3.0 cm^3.
Take `CO[C@H]1[C@@H](OC)C[C@H](C)[C@@H](OC)C2=CC(=O)C=C(NC(=O)/C(C)=C/C=C\[C@H](OC)[C@@H](OC(N)=O)/C(C)=C/[C@@H]1C)C2=O` [Herbimycin A]: under setting [1], the Molar volume is on record as 479.9 ± 5.0 cm^3.
Consider `C=CCc1ccc(O)c(-c2ccc(O)c(CC=C)c2)c1` [Honokiol], for which the Molar volume under setting [1] is reported as 240.4 ± 3.0 cm^3.
As for `CC[C@@]1(O)C(=O)OCc2c1cc1n(c2=O)Cc2cc3c(CN(C)C)c(O)ccc3nc2-1` [Hycamtin (Topotecan Hydrochloride), Topotecan Hydrochloride], the Molar volume (Table 2, anticancer drugs) was 281.3 ± 5.0 cm^3.
Consider `NC(=O)NO` [Hydrea (Hydroxyurea), Hydroxyurea], for which the Molar volume (Table 2, anticancer drugs) is recorded as 52.1 ± 3.0 cm^3.
As for `CN[C@H]1C[C@@H](N)[C@H](O)[C@@H](O[C@@H]2O[C@H](CO)[C@H](O)[C@@H]3OC4(O[C@H]23)O[C@H]([C@@H](N)CO)[C@H](O)[C@H](O)[C@H]4O)[C@@H]1O` (some centres unmarked) [Hygromycin B (WK2130000), Hygromycin B], under setting [1], the Molar volume is recorded as 315.1 ± 5.0 cm^3.
As to `CC(=O)[C@]1(O)Cc2c(O)c3c(c(O)c2[C@@H](O[C@H]2C[C@H](N)[C@H](O)[C@H](C)O2)C1)C(=O)c1ccccc1C3=O` [Idarubicin Hydrochloride], under “Table 2, anticancer drugs”, the Molar volume is listed as 317.8 ± 5.0 cm^3.
As for `CC[C@H](Nc1ncnc2[nH]cnc12)c1nc2cccc(F)c2c(=O)n1-c1ccccc1` [Idelalisib (Zydelig), Idelalisib], the Molar volume (Table 2, anticancer drugs) is listed as 282.2 ± 7.0 cm^3.
As to `O=P1(NCCCl)OCCCN1CCCl` (centres unmarked) [Ifex (Ifosfamide), Ifosfamide], where the note is “Table 2, anticancer drugs”, the Molar volume is reported as 195.6 ± 5.0 cm^3.
Take `C[C@H](CCC(=O)O)C[C@H](C)C[C@H](C)C(=O)/C=C(\O)[C@H](C)C[C@H](C)C/C=C/[C@@H](C)[C@@H](O)[C@@H](C)[C@@H](O)C[C@@H]1CC[C@@](C)([C@H]2CC[C@@](C)([C@@H](C)O)O2)O1` [Ionomycin]: the Molar volume under setting [1] was 661.0 ± 3.0 cm^3.
As to `Oc1cc(Cl)ccc1Oc1ccc(Cl)cc1Cl` [Irgasan], the Molar volume under setting [1] is 194.3 ± 3.0 cm^3.
`N#Cc1ccnc(N2C(=O)CC[C@H]2C(=O)N(c2cncc(F)c2)[C@H](C(=O)NC2CC(F)(F)C2)c2ccccc2Cl)c1` [Ivosidenib (Tibsovo), Ivosidenib]: the Molar volume (Table 2, anticancer drugs) is on record as 383.5 ± 5.0 cm^3.
In the case of `C/C(=C\c1csc(C)n1)[C@@H]1C[C@@H]2O[C@]2(C)CCC[C@H](C)[C@H](O)[C@@H](C)C(=O)C(C)(C)[C@@H](O)CC(=O)N1` [Ixabepilone], for the setting “Table 2, anticancer drugs”, the Molar volume was 451.5 ± 3.0 cm^3.
Regarding `CO[C@@H]1[C@@H](O[C@@H]2O[C@H](C)[C@@H](O[C@H]3C[C@@](C)(O)[C@@H](OC(=O)CC(C)C)[C@H](C)O3)[C@H](N(C)C)[C@H]2O)[C@@H](CC=O)C[C@@H](C)[C@@H](O)/C=C/C=C/C[C@@H](C)OC(=O)C[C@H]1OC(C)=O` [Josamycin], the Molar volume under setting [1] is on record as 684.5 ± 5.0 cm^3.
With `COC(=O)[C@@]1(O)C[C@H]2O[C@]1(C)n1c3ccccc3c3c4c(c5c6ccccc6n2c5c31)C(=O)NC4` [K-252a], the Molar volume under setting [1] is reported as 278.7 ± 7.0 cm^3.
For `C[C@H]1O[C@H](O[C@H]2[C@H](O)[C@@H](O)[C@@H](O)[C@H](O)[C@@H]2O)[C@@H](N)C[C@@H]1NC(=N)C(=O)O` [Kasugamycin], the Molar volume under setting [2] is listed as 192.2 ± 7.0 cm^3.
For `CC(=O)N1CCN(c2ccc(OCC3COC(Cn4ccnc4)(c4ccc(Cl)cc4Cl)O3)cc2)CC1` (centres unmarked) [Ketoconazole], the Molar volume is, setting by setting: under setting [1], 384.9 ± 7.0 cm^3; under setting [2], 389.4 cm^3.
Regarding `CN(C)C(=O)c1cc2cnc(Nc3ccc(N4CCNCC4)cn3)nc2n1C1CCCC1` [Kisqali (Ribociclib), Ribociclib], the Molar volume reads like this: (Table 2, anticancer drugs) 635.1 ± 5.0 cm^3; (Table 2, anticancer drugs, listed as Ribociclib) 311.4 ± 7.0 cm^3.
On to `C[C@H](N)C(=O)N[C@@H](C)P(=O)(O)O` [L-Alanyl-L-1-aminoethylphosphonic acid], for which, under setting [1], the Molar volume is given as 140.5 ± 3.0 cm^3.
For `CC(C)[C@@H]1NC(=O)[C@H](CCCCN)NC(=O)[C@@H](Cc2c[nH]c3ccccc23)NC(=O)[C@H](Cc2ccc(O)cc2)NC(=O)[C@@H](NC(=O)[C@H](N)Cc2ccc3ccccc3c2)CSSC[C@@H](C(=O)N[C@H](C(N)=O)[C@@H](C)O)NC1=O` [Lanreotide Acetate], the Molar volume (Table 2, anticancer drugs) is reported as 781.0 ± 5.0 cm^3.
On to `O=C(Nc1cnn2ccc(N3CCC[C@@H]3c3cc(F)ccc3F)nc12)N1CC[C@H](O)C1` [Larotrectinib Sulfate (Vitrakvi), Larotrectinib Sulfate], for which the Molar volume (Table 2, anticancer drugs) is listed as 274.6 ± 7.0 cm^3.
Take `Nc1cccc2c1CN(C1CCC(=O)NC1=O)C2=O` (centres unmarked) [Lenalidomide]: for the setting “Table 2, anticancer drugs”, the Molar volume is 177.4 ± 3.0 cm^3.
Turning to `CC(/C=C/C[C@@H](C)/C=C(C)/C=C/[C@@H]1OC(=O)C=C[C@@H]1C)=C\[C@@H](C)C(=O)[C@@H](C)[C@H](O)[C@@H](C)C/C(C)=C/C(=O)O` [Leptomycin A], the Molar volume under setting [1] is 487.8 ± 3.0 cm^3.
As to `CCC(=C/[C@H](C)C/C=C/C(C)=C/[C@@H](C)C(=O)[C@@H](C)[C@H](O)[C@@H](C)C/C(C)=C/C(=O)O)/C=C/[C@@H]1OC(=O)C=C[C@@H]1C` [Leptomycin B], the Molar volume under setting [1] is 504.3 ± 3.0 cm^3.
For the compound `CCNC(=O)[C@@H]1CCCN1C(=O)[C@H](CCCNC(=N)N)NC(=O)[C@H](CC(C)C)NC(=O)[C@@H](CC(C)C)NC(=O)[C@H](Cc1ccc(O)cc1)NC(=O)[C@H](CO)NC(=O)[C@H](Cc1c[nH]c2ccccc12)NC(=O)[C@H](Cc1c[nH]cn1)NC(=O)[C@@H]1CCC(=O)N1` [Leuprolide Acetate), Leuprolide Acetate], the Molar volume (Table 2, anticancer drugs) was 834.5 ± 7.0 cm^3.
As for `c1ccc([C@H]2CN3CCSC3=N2)cc1` [Levamisol (Levamisole), Levamisole], the Molar volume under setting [1] is given as 154.1 ± 7.0 cm^3.
Consider `O=NN(CCCl)C(=O)NC1CCCCC1` [Lomustine], for which the Molar volume (Table 2, anticancer drugs) is on record as 173.0 ± 7.0 cm^3.
As for `O=C(c1cc(Cc2n[nH]c(=O)c3ccccc23)ccc1F)N1CCN(C(=O)C2CC2)CC1` [Lynparza (Olaparib), Olaparib], under “Table 2, anticancer drugs”, the Molar volume is given as 301.7 ± 7.0 cm^3.
With `CNNCc1ccc(C(=O)NC(C)C)cc1` [Matulane (Procarbazine Hydrochloride), Procarbazine Hydrochloride], the Molar volume (Table 2, anticancer drugs) is given as 213.6 ± 3.0 cm^3.
As to `COC(=O)Nc1nc2ccc(C(=O)c3ccccc3)cc2[nH]1` [Mebendazole], under setting [1], the Molar volume was 212.6 ± 3.0 cm^3.
Consider `CC(=O)O[C@]1(C(C)=O)CC[C@H]2[C@@H]3C=C(C)C4=CC(=O)CC[C@]4(C)[C@H]3CC[C@@]21C` [Megestrol Acetate], for which, where the note is “Table 2, anticancer drugs”, the Molar volume is 333.3 ± 5.0 cm^3.
Take `N[C@@H](Cc1ccc(N(CCCl)CCCl)cc1)C(=O)O` [Melphalan]: the Molar volume (Table 2, anticancer drugs) is given as 231.2 ± 3.0 cm^3.
Consider `S=c1nc[nH]c2nc[nH]c12` [Mercaptopurine], for which the Molar volume (Table 2, anticancer drugs) is 94.1 ± 3.0 cm^3.
`CN(Cc1cnc2nc(N)nc(N)c2n1)c1ccc(C(=O)N[C@@H](CCC(=O)O)C(=O)O)cc1` [Methotrexate]: the Molar volume (Table 2, anticancer drugs) is given as 295.6 ± 3.0 cm^3.
Turning to `Cc1ncc([N+](=O)[O-])n1CCO` [Metronidazole], the Molar volume under setting [1] is listed as 117.8 ± 7.0 cm^3.
For the compound `CC[C@H](C)C(=O)O[C@H]1CCC=C2C=C[C@H](C)[C@H](CC[C@@H]3C[C@@H](O)CC(=O)O3)[C@H]21` [Mevastatin], the Molar volume under setting [1] was 343.8 ± 5.0 cm^3.
Consider `CO[C@@]12[C@H](COC(N)=O)C3=C(C(=O)C(C)=C(N)C3=O)N1C[C@@H]1N[C@@H]12` [Mitomycin C (Mitomycin), Mitomycin C], for which the Molar volume is 213.6 ± 5.0 cm^3 under setting [1] and 213.6 ± 5.0 cm^3 (Table 2, anticancer drugs).
